# Data as given in US8722849B2, “Polypeptides” (Novo Nordisk A/S, priority 2011, dated 2014).
# Like-named read-outs stand apart in the source and are kept apart here. Starred links: 1 amine or outer side, 2 acyl side, 3 side chain; linkers in the order of their positions; H or OH if unused. Positions of bridges follow the written chain, without caps; N, C: chain ends. Residues, ends and D or L forms follow the SMILES beside them. *: point of attachment. C20 diacid = O=C(O)CCCCCCCCCCCCCCCCCCC(=O)*; γGlu = O=C(O)[C@H](CCC(=O)[*:2])N[*:1]
# Columns and labels:
# [1] = Assay (IV) determination of solubility; type: physicochemical
# Summary of the method: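 Polypeptide in water (~500 nmol/ml) mixed 1:1 with 100 mM glycylglycine (pH 3.0–5.0) or bistrispropane (pH 6.0–8.0) buffers. Held 18 hours at room temperature, then centrifuged. Polypeptide remaining in solution quantified by HPLC.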
# [2] = Assay (III) ThT fibrillation assay for physical stability; type: physicochemical; conditions: ThT fibrillation assay
# Summary of the method: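 Freshly prepared formulations, pH-adjusted, with 1 μM ThT; four or eight replicates incubated at 37 °C under 960 rpm orbital shaking. Fluorescence (ex 444/em 485 nm) read every 20 min; […]. Peptide concentration measured by RP-HPLC before and after the run.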
# [3] = target: T1, human calcitonin receptor (Homo sapiens, UniProt P30988); experiment: Assay (II)a functional CRE-luciferase assay, human calcitonin receptor; type: cell-based; conditions: Table 7; human calcitonin (CTa) receptor
# T1 construct: expressed in transfected cells; host or cells: BHK570
# T1 sequence (P30988 25-474): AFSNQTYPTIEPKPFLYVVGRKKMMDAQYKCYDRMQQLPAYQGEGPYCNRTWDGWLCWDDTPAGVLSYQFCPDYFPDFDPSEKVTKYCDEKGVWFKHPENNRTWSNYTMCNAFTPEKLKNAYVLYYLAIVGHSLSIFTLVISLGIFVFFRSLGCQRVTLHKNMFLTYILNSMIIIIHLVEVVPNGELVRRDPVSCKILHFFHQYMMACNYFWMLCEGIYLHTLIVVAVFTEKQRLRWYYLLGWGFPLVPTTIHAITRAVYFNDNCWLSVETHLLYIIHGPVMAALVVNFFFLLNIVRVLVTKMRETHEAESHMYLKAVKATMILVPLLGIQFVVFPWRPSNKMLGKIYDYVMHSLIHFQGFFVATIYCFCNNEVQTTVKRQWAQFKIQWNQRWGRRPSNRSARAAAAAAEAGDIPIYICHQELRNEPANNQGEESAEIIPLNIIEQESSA
# [4] = target: T2, human amylin receptor (amylin 3(a) receptor: human calcitonin receptor + RAMP-3) (Homo sapiens, UniProt O60896+P30988); experiment: Assay (II)a functional CRE-luciferase assay, human amylin receptor; type: cell-based; conditions: Table 2; BHK amylin 3(a)-receptor/CRE-luc cells
# T2 construct: expressed in transfected cells; host or cells: BHK570
# T2 sequence (P30988 25-474): T1 sequence (P30988 25-474)
# T2 sequence (O60896 24-148 partner): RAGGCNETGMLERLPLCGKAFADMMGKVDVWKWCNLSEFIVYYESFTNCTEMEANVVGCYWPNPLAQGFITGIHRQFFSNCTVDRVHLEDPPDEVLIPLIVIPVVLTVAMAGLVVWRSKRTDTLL
# [5] = bistrispropane buffer, pH 6, pH 6.0, read-out: Solubility pH 6.0
# [6] = bistrispropane buffer, pH 6.5, pH 6.5, read-out: Solubility pH 6.5
# [7] = bistrispropane buffer, pH 7, pH 7.0, read-out: Solubility pH 7.0
# [8] = bistrispropane buffer, pH 7.5, pH 7.5, read-out: Solubility pH 7.5
# [9] = bistrispropane buffer, pH 8, pH 8.0, read-out: Solubility pH 8.0
# [10] = glycylglycine buffer, pH 3, pH 3.0, read-out: Solubility pH 3.0
# [11] = glycylglycine buffer, pH 4, pH 4.0, 18 hours at room temperature, Table 2, read-out: Solubility pH 4.0
# [12] = glycylglycine buffer, pH 4, pH 4.0, read-out: Solubility pH 4.0
# [13] = glycylglycine buffer, pH 5, pH 5.0, read-out: Solubility pH 5.0
# [14] = bistrispropane buffer, pH 7, pH 7.0, 18 hours at room temperature, Table 3, read-out: Solubility pH 7.0
"solubility at 18 h [1, 5]","solubility at 18 h [1, 6]","solubility at 18 h [1, 7]","solubility at 18 h [1, 8]","solubility at 18 h [1, 9]","solubility at 18 h [1, 10]","solubility at 18 h [1, 11]","solubility at 18 h [1, 12]","solubility at 18 h [1, 13]",ThT pH 4.0 lag time (h) [2],EC50 [3],EC50 [4],"solubility at 18 h [1, 14]","solubility at 18 h ([1]; pH 8.0, read-out: Solubility pH 8.0)",SMILES
49 µM,4 µM,27 µM,174 µM,> 200 µM,> 200 µM,> 200 µM,> 200 µM,> 200 µM,19 h,0.171 nM,0.225 nM,,,"CC[C@H](C)[C@H](NC(=O)[C@@H]1CCCN1C(=O)CNC(=O)[C@H](Cc1ccccc1)NC(=O)[C@H](CC(N)=O)NC(=O)[C@H](CC(N)=O)NC(=O)[C@H](CO)NC(=O)[C@H](CO)NC(=O)[C@H](Cc1c[nH]cn1)NC(=O)[C@H](Cc1c[nH]cn1)NC(=O)[C@H](CC(C)C)NC(=O)[C@H](Cc1ccccc1)NC(=O)[C@H](CCC(=O)O)NC(=O)[C@H](C)NC(=O)[C@H](CC(C)C)NC(=O)[C@H](CCCNC(=N)N)NC(=O)[C@H](CCC(N)=O)NC(=O)[C@@H](NC(=O)[C@H](C)NC(=O)[C@@H]1CSSC[C@H](NC(=O)[C@H](CO)NC(=O)CC[C@H](NC(=O)CCCCCCCCCCCCCCCCCCC(=O)O)C(=O)O)C(=O)N[C@@H](CC(N)=O)C(=O)N[C@@H]([C@@H](C)O)C(=O)N[C@@H](C)C(=O)N[C@@H]([C@@H](C)O)C(=O)N1)[C@@H](C)O)C(=O)N[C@@H](CC(C)C)C(=O)N1CCC[C@H]1C(=O)N1CCC[C@H]1C(=O)N[C@H](C(=O)N[C@@H](CC(N)=O)C(=O)N[C@H](C(=O)NCC(=O)N[C@@H](CO)C(=O)N[C@@H](Cc1c[nH]cn1)C(=O)N[C@H](C(=O)N[C@@H](Cc1ccc(O)cc1)C(N)=O)[C@@H](C)O)C(C)C)[C@@H](C)O [Example 107, N-alpha-[(S)-4-Carboxy-4-(19-carboxynonadecanoylamino)butyryl]-[Ser1,Glu14,His17,His35]-pramlintide] ({C20 diacid-γGlu}-SCNTATCATQRLAEFLHHSSNNFGPILPPTNVGSHTY-NH2; disulfide 2-7)"
193 µM,> 200 µM,> 200 µM,> 200 µM,> 200 µM,> 200 µM,> 200 µM,> 200 µM,> 200 µM,2.7 h,0.0735 nM,0.088 nM,> 200 µM,,"CC[C@H](C)[C@H](NC(=O)[C@@H]1CCCN1C(=O)CNC(=O)[C@H](Cc1ccccc1)NC(=O)[C@H](CC(N)=O)NC(=O)[C@H](CC(N)=O)NC(=O)[C@H](CO)NC(=O)[C@H](CO)NC(=O)[C@H](Cc1c[nH]cn1)NC(=O)[C@@H](NC(=O)[C@H](CC(C)C)NC(=O)[C@H](Cc1ccccc1)NC(=O)[C@H](CCC(=O)O)NC(=O)[C@H](C)NC(=O)[C@H](CC(C)C)NC(=O)[C@H](CCCNC(=N)N)NC(=O)[C@H](CCC(N)=O)NC(=O)[C@@H](NC(=O)[C@H](C)NC(=O)[C@@H]1CSSC[C@H](NC(=O)CC[C@H](NC(=O)CCCCCCCCCCCCCCCCCCC(=O)O)C(=O)O)C(=O)N[C@@H](CC(N)=O)C(=O)N[C@@H]([C@@H](C)O)C(=O)N[C@@H](C)C(=O)N[C@@H]([C@@H](C)O)C(=O)N1)[C@@H](C)O)C(C)C)C(=O)N[C@@H](CC(C)C)C(=O)N1CCC[C@H]1C(=O)N1CCC[C@H]1C(=O)N[C@H](C(=O)N[C@@H](CC(N)=O)C(=O)N[C@H](C(=O)NCC(=O)N[C@@H](CO)C(=O)N[C@@H](CC(N)=O)C(=O)N[C@H](C(=O)N1CCC[C@H]1C(N)=O)[C@@H](C)O)C(C)C)[C@@H](C)O [Example 108, N-alpha-[(S)-4-Carboxy-4-(19-carboxynonadecanoylamino)butyryl]-[des1,Glu14,Pro37]-pramlintide] ({C20 diacid-γGlu}-CNTATCATQRLAEFLVHSSNNFGPILPPTNVGSNTP-NH2; disulfide 1-6 (inferred))"
> 200 µM,> 200 µM,> 200 µM,> 200 µM,> 200 µM,> 200 µM,> 200 µM,> 200 µM,> 200 µM,6.3 h,0.0725 nM,0.0845 nM,> 200 µM,,"CC[C@H](C)[C@H](NC(=O)[C@@H]1CCCN1C(=O)CNC(=O)[C@H](Cc1ccccc1)NC(=O)[C@H](CC(N)=O)NC(=O)[C@H](CC(N)=O)NC(=O)[C@H](CO)NC(=O)[C@H](CO)NC(=O)[C@H](Cc1c[nH]cn1)NC(=O)[C@@H](NC(=O)[C@H](CC(C)C)NC(=O)[C@H](Cc1ccccc1)NC(=O)[C@H](CCC(=O)O)NC(=O)[C@H](C)NC(=O)[C@H](CC(C)C)NC(=O)[C@H](CCCNC(=N)N)NC(=O)[C@H](CCC(N)=O)NC(=O)[C@@H](NC(=O)[C@H](C)NC(=O)[C@@H]1CSSC[C@H](NC(=O)[C@H](Cc2c[nH]cn2)NC(=O)CC[C@H](NC(=O)CCCCCCCCCCCCCCCCCCC(=O)O)C(=O)O)C(=O)N[C@@H](CC(N)=O)C(=O)N[C@@H]([C@@H](C)O)C(=O)N[C@@H](C)C(=O)N[C@@H]([C@@H](C)O)C(=O)N1)[C@@H](C)O)C(C)C)C(=O)N[C@@H](CC(C)C)C(=O)N1CCC[C@H]1C(=O)N1CCC[C@H]1C(=O)N[C@H](C(=O)N[C@@H](CC(N)=O)C(=O)N[C@H](C(=O)NCC(=O)N[C@@H](CO)C(=O)N[C@@H](CC(N)=O)C(=O)N[C@H](C(=O)N1CCC[C@H]1C(N)=O)[C@@H](C)O)C(C)C)[C@@H](C)O [Example 109, N-alpha-[(S)-4-Carboxy-4-(19-carboxynonadecanoylamino)butyryl]-[His1,Glu14,Pro37]-pramlintide] ({C20 diacid-γGlu}-HCNTATCATQRLAEFLVHSSNNFGPILPPTNVGSNTP-NH2; disulfide 2-7 (inferred); C-terminus assumed)"
1 µM,1 µM,1 µM,1 µM,,> 200 µM,> 200 µM,> 200 µM,> 200 µM,1.7 h,0.349 nM,0.921 nM,,1 µM,"CC[C@H](C)[C@H](NC(=O)[C@@H]1CCCN1C(=O)CNC(=O)[C@H](Cc1ccccc1)NC(=O)[C@H](CC(N)=O)NC(=O)[C@H](CO)NC(=O)[C@H](CO)NC(=O)[C@H](CO)NC(=O)[C@H](Cc1c[nH]cn1)NC(=O)[C@@H](NC(=O)[C@H](CC(C)C)NC(=O)[C@H](Cc1ccccc1)NC(=O)[C@H](CCC(=O)O)NC(=O)[C@H](C)NC(=O)[C@H](CC(C)C)NC(=O)[C@H](CCCNC(=N)N)NC(=O)[C@H](CCC(N)=O)NC(=O)[C@@H](NC(=O)[C@H](C)NC(=O)[C@@H]1CSSC[C@H](NC(=O)[C@H](Cc2c[nH]cn2)NC(=O)CC[C@H](NC(=O)CCCCCCCCCCCCCCCCCCC(=O)O)C(=O)O)C(=O)N[C@@H](CC(N)=O)C(=O)N[C@@H]([C@@H](C)O)C(=O)N[C@@H](C)C(=O)N[C@@H]([C@@H](C)O)C(=O)N1)[C@@H](C)O)C(C)C)C(=O)N[C@@H](CC(C)C)C(=O)N[C@@H](CO)C(=O)N[C@@H](CO)C(=O)N[C@H](C(=O)N[C@@H](CC(N)=O)C(=O)N[C@H](C(=O)NCC(=O)N[C@@H](CO)C(=O)N[C@@H](Cc1c[nH]cn1)C(=O)N[C@H](C(=O)N[C@@H](Cc1ccc(O)cc1)C(N)=O)[C@@H](C)O)C(C)C)[C@@H](C)O [Example 110, N-alpha-[(S)-4-Carboxy-4-(19-carboxynonadecanoylamino)butyryl]-[His1,Glu14,Ser21,Ser28,Ser29,His35]-pramlintide] ({C20 diacid-γGlu}-HCNTATCATQRLAEFLVHSSSNFGPILSSTNVGSHTY-NH2; disulfide 2-7 (inferred))"
